Assay results from patent US4822800A (Ortho Pharmaceutical Corporation, priority 1986, dated 1989).
“Also recorded” adds a separate entry of the source. Like-named read-outs stand apart in the source and are kept apart here.

Assays:
[1] = target: T1, Phosphodiesterase fraction III (Canis lupus familiaris, UniProt A0A8I3NYE0); assay: inhibition of phosphodiesterase fraction III activity; format: biochemical, canine (heart); conditions: for IC50: cyclic AMP 0.10-1.0 uM, pH 7.4, canine heart enzyme; for phosphodiesterase fraction III inhibition (in words): summary of Table 5
T1 construct: isolated as an isozyme from the crude canine heart homogenate; from tissue; host or cells: canine heart (crude homogenate, ion exchange chromatography, third and last PDE peak)
T1 sequence (A0A8I3NYE0 1-1135): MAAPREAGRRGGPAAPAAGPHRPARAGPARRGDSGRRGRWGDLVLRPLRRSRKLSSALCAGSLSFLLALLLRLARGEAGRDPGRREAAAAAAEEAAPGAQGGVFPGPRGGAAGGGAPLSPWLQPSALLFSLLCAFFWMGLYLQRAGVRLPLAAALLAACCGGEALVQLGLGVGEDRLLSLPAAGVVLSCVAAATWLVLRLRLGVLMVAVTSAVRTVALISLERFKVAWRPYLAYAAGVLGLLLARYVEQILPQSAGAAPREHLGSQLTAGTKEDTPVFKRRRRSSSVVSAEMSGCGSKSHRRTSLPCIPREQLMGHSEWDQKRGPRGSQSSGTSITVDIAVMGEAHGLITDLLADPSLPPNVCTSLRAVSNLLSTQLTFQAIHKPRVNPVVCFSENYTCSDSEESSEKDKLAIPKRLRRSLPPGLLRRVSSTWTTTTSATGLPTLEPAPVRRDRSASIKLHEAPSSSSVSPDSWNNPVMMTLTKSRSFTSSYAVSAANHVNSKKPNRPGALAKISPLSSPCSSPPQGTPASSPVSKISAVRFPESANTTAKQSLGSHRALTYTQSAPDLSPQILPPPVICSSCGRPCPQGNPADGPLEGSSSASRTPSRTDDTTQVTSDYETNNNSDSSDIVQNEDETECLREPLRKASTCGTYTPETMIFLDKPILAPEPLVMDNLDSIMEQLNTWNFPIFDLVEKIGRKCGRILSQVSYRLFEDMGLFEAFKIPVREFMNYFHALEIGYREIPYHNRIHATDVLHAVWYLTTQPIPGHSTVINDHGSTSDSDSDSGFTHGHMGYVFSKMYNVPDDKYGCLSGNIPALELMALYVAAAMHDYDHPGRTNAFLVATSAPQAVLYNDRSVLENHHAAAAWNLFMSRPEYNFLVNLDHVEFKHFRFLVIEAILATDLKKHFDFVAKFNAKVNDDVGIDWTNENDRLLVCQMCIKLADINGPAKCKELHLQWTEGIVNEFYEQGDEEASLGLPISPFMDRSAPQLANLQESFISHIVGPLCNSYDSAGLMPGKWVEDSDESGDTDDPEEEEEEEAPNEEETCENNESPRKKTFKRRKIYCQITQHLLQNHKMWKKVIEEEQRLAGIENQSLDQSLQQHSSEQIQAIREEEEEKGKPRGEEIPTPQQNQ

adult mongrel dogs [2] = assay: acute in vivo cardiotonic activity in anesthetized dogs; design: species or system dog (adult mongrel); conditions: for change in vivo at 0.15 mg/kg / change in vivo at 0.375 mg/kg / change in vivo at 0.925 mg/kg / change in vivo at 1.875 mg/kg / change in vivo at 0.875 mg/kg: Canis lupus familiaris, cardiotonic, relative to controls; for change in vivo at 0.15 mg/kg: dose 0.150 mg/kg intravenous; for cardiotonic activity (in words): summary of Table 4; for change in vivo at 0.375 mg/kg: dose 0.375 mg/kg intravenous; for change in vivo at 0.925 mg/kg: dose 0.925 mg/kg intravenous; for change in vivo at 1.875 mg/kg: dose 1.875 mg/kg intravenous; for change in vivo at 0.875 mg/kg: dose 0.875 mg/kg intravenous
Experimental: The acute in vivo cardiotonic activity of compounds prepared according to the present invention was determined according to a modification of the procedure described by Alousi et al., Circ. Res., 45, 666 (1979).
In particular, adult mongrel dogs were anesthetized with sodium pentobarbital and were artificially respired. Arterial pressure was monitored via a femoral artery, and the pulse pressure was used to trigger a cardiotachometer for heart rate. Left ventricular pressure was determined with a Millar catheter, and dP/dt (the change in ventricular pressure with time) was derived. Cardiac output was determined by measuring ascending aortic blood flow with an electromagnetic flow probe, and myocardial contractile force was measured with a Walton Brodie strain gauge sutured to the right ventricle. Lead II EKG was also recorded.
A standard dose (10 μg/kg/min) of dopamine was administered to assess myocardial responsiveness.
Compounds of the invention were administered by intravenous infusion or bolus […] administration, and the effects on cardiovascular parameters were determined.
Dose related effects of the test compound on blood pressure (BP), heart rate (HR), maximum change in left ventricular pressure with time (dP/dt max),% change in cardiac force (CF) and the increase in mean arterial blood pressure relative to controls (MABP) were compared to pretreatment control values, expressed as a% change and rated for activity.

adult mongrel dogs [3] = assay: renal vasodilating activity in anesthetized dogs; format: in vivo, dog (adult mongrel); conditions: for change in vivo at 0.2 mg/kg / change in vivo at 1.2 mg/kg / change in vivo at 0.34 mg/kg / change in vivo at 0.14 mg/kg: Canis lupus familiaris, renal vasodilator, relative to controls; for change in vivo at 0.2 mg/kg: dose 0.2 mg/kg intravenous; for renal vasodilating activity (in words): summary of Table 4; for change in vivo at 1.2 mg/kg: dose 1.2 mg/kg intravenous; for change in vivo at 0.34 mg/kg: dose 0.34 mg/kg intravenous; for change in vivo at 0.14 mg/kg: dose 0.14 mg/kg intravenous
Experimental: Goldberg et al, J. Pharmacol. Exp. Ther., 163, 188 (1968), performed an investigation of the structural requirements for dopamine-like renal vasodilation of phenethylamines and apomorphine. The following procedure is a variation of the assay described in that report.
Adult mongrel dogs were anesthetized and surgically prepared for electromagnetic measurement of renal artery blood flow. A carotid artery was cannulated for measuring arterial blood pressure, and drugs were administered intravenously. Heart rate was monitored with a cardiotachometer. Renal vascular resistance was calculated as the ratio of mean arterial blood pressure/renal artery blood flow. Dopamine was infused intravenously at 3 μg/kg/min for ten minutes (at an infusion rate of about 1 ml/min) to determine responsiveness of each dog to renal dopamine receptor stimulation. Cumulative dose-response data were obtained by infusing a compound of this invention at progressively increasing (usually three-fold) infusion rates, each dose being infused for five minutes. The maximum % increase from pre-drug control in renal artery blood flow (or a decrease in renal vascular resistance) was determined for each infusion dose.
RBF values are percent change in renal blood flow. RVR values are percent change in renal vascular resistance. MABP and HR are percent changes in mean arterial blood pressure and heart rate, respectively, relative to controls.

[4] = read-out: MABP (mean arterial blood pressure)
[5] = read-out: dP/dt (maximum change left ventricular pressure with time)
[6] = read-out: RBF (renal blood flow)
[7] = read-out: RVR (renal vascular resistance)

COc1cc2c(C)nc(O)c(C(C)C)c2cc1OC [AF]
IC50 [1]: 12.3 µM
phosphodiesterase fraction III inhibition (in words) [1]: inhibit phosphodiesterase fraction III activity; also recorded: phosphodiesterase fraction III inhibiting properties
change in vivo at 0.15 mg/kg (adult mongrel dogs [2]; read-out: CF (cardiac force)): 92%
change in vivo at 0.15 mg/kg (adult mongrel dogs [2]; read-out: HR (heart rate)): 8%
change in vivo at 0.15 mg/kg (adult mongrel dogs [2]; [4]): -15%
change in vivo at 0.15 mg/kg (adult mongrel dogs [2]; [5]): 60%
cardiotonic activity (in words) (adult mongrel dogs [2]): cardiotonic properties
change in vivo at 0.2 mg/kg (adult mongrel dogs [3]; read-out: HR (heart rate)): 28%
change in vivo at 0.2 mg/kg (adult mongrel dogs [3]; [4]): -16%
change in vivo at 0.2 mg/kg (adult mongrel dogs [3]; [6]): 11%
change in vivo at 0.2 mg/kg (adult mongrel dogs [3]; [7]): -24%
renal vasodilating activity (in words) (adult mongrel dogs [3]): renal vasodilating properties

COc1cc(OC)c2c(C)nc(O)cc2c1 [AH]
IC50 [1]: 80 µM
change in vivo at 0.375 mg/kg (adult mongrel dogs [2]; read-out: CF (cardiac force)): 50%
change in vivo at 0.375 mg/kg (adult mongrel dogs [2]; read-out: HR (heart rate)): 6%
change in vivo at 0.375 mg/kg (adult mongrel dogs [2]; [4]): -3%
change in vivo at 0.375 mg/kg (adult mongrel dogs [2]; [5]): 46%
change in vivo at 1.2 mg/kg (adult mongrel dogs [3]; read-out: HR (heart rate)): 25%
change in vivo at 1.2 mg/kg (adult mongrel dogs [3]; [4]): -6%
change in vivo at 1.2 mg/kg (adult mongrel dogs [3]; [6]): 13%
change in vivo at 1.2 mg/kg (adult mongrel dogs [3]; [7]): -17%

COc1ccc2c(C)nc(O)cc2c1 [AI]
IC50 [1]: 160 µM
change in vivo at 0.925 mg/kg (adult mongrel dogs [2]; read-out: CF (cardiac force)): 65%
change in vivo at 0.925 mg/kg (adult mongrel dogs [2]; read-out: HR (heart rate)): 8%
change in vivo at 0.925 mg/kg (adult mongrel dogs [2]; [4]): 0%
change in vivo at 0.925 mg/kg (adult mongrel dogs [2]; [5]): 56%
change in vivo at 1.2 mg/kg (adult mongrel dogs [3]; read-out: HR (heart rate)): 4%
change in vivo at 1.2 mg/kg (adult mongrel dogs [3]; [4]): -1%
change in vivo at 1.2 mg/kg (adult mongrel dogs [3]; [6]): 7%
change in vivo at 1.2 mg/kg (adult mongrel dogs [3]; [7]): -7%

CCCCOc1cc2c(C)nc(O)cc2cc1OC [AL]
IC50 [1]: 37 µM
phosphodiesterase fraction III inhibition (in words) [1]: inhibit phosphodiesterase fraction III activity; also recorded: phosphodiesterase fraction III inhibiting properties
change in vivo at 0.375 mg/kg (adult mongrel dogs [2]; read-out: CF (cardiac force)): 138%
change in vivo at 0.375 mg/kg (adult mongrel dogs [2]; read-out: HR (heart rate)): 22%
change in vivo at 0.375 mg/kg (adult mongrel dogs [2]; [4]): -10%
change in vivo at 0.375 mg/kg (adult mongrel dogs [2]; [5]): 46%
cardiotonic activity (in words) (adult mongrel dogs [2]): cardiotonic properties
change in vivo at 1.2 mg/kg (adult mongrel dogs [3]; read-out: HR (heart rate)): 9%
change in vivo at 1.2 mg/kg (adult mongrel dogs [3]; [4]): -6%
change in vivo at 1.2 mg/kg (adult mongrel dogs [3]; [6]): 13%
change in vivo at 1.2 mg/kg (adult mongrel dogs [3]; [7]): -17%
renal vasodilating activity (in words) (adult mongrel dogs [3]): renal vasodilating properties

COc1cc2c(C)nc(O)c(C3CCCC3)c2cc1OC [AN]
IC50 [1]: 128 µM
change in vivo at 1.875 mg/kg (adult mongrel dogs [2]; read-out: CF (cardiac force)): 46%
change in vivo at 1.875 mg/kg (adult mongrel dogs [2]; read-out: HR (heart rate)): 5%
change in vivo at 1.875 mg/kg (adult mongrel dogs [2]; [4]): 3%
change in vivo at 1.875 mg/kg (adult mongrel dogs [2]; [5]): 22%
change in vivo at 0.34 mg/kg (adult mongrel dogs [3]; read-out: HR (heart rate)): 1%
change in vivo at 0.34 mg/kg (adult mongrel dogs [3]; [4]): -1%
change in vivo at 0.34 mg/kg (adult mongrel dogs [3]; [6]): 10%
change in vivo at 0.34 mg/kg (adult mongrel dogs [3]; [7]): -10%

Br.COc1cc2c(C)nc(O)c(Br)c2cc1OC.O [Compound AC, 4-Bromo-3-hydroxy-6,7-dimethoxy-1-methylisoquinoline Hydrobromide Monohydrate]
IC50 [1]: 10 µM
phosphodiesterase fraction III inhibition (in words) [1]: inhibit phosphodiesterase fraction III activity
change in vivo at 0.875 mg/kg (adult mongrel dogs [2]; read-out: CF (cardiac force)): 128%
change in vivo at 0.875 mg/kg (adult mongrel dogs [2]; read-out: HR (heart rate)): 26%
change in vivo at 0.875 mg/kg (adult mongrel dogs [2]; [4]): -40%
change in vivo at 0.875 mg/kg (adult mongrel dogs [2]; [5]): 25%
change in vivo at 0.2 mg/kg (adult mongrel dogs [3]; [6]): 8%
change in vivo at 0.2 mg/kg (adult mongrel dogs [3]; [7]): -27%

COc1cc2c(C)nc(O)c(Cl)c2cc1OC [Compound AE, 4-Chloro-3-hydroxy-6,7-dimethoxy-1-methylisoquinoline]
IC50 [1]: 62 µM
change in vivo at 0.875 mg/kg (adult mongrel dogs [2]; read-out: CF (cardiac force)): 89%
change in vivo at 0.875 mg/kg (adult mongrel dogs [2]; read-out: HR (heart rate)): 29%
change in vivo at 0.875 mg/kg (adult mongrel dogs [2]; [4]): 1%
change in vivo at 0.875 mg/kg (adult mongrel dogs [2]; [5]): 88%
change in vivo at 0.14 mg/kg (adult mongrel dogs [3]; [6]): 12%
change in vivo at 0.14 mg/kg (adult mongrel dogs [3]; [7]): -25%
